Our source for the solubility values is EP0037780A1, “Alcoxy-propanol amines useful as medicines, and process for their preparation” (PIERRE FABRE S.A., priority 1980, dated 1981).

SMILES strings stand for the structures. Values after ≈ are worked out from the molar mass of the structure shown. Where two headings read alike, the source gives them in different places.

The data set is described as follows: Solubility. Format: physicochemical. Particulars: read-out: Solubilité. From the text:
Chromatographie sur plaque : • - support : gel de silice 60 F 254 Merck • - solvant : chloroforme - méthanol - ammoniaque 80/18/2 • - révélation : iode • - Rf : 0,65 Solubilité : soluble à 5 % dans l'eau.
Chromatographie sur plaque : • - support : gel de silice 60 F 254 Merck • - solvant : chloroforme - méthanol - ammoniaque 80/18/2 • - révélation : iode • - Rf : 0,6 Solubilité : soluble à 1 % dans l'eau.
Chromatographie sur plaque : • - support : gel de silice 60 F 254 Merck • - solvant : chloroforme - méthanol - ammoniaque 80/18/2 • - révélation : Réactif de Dragendorf et iode • - Rf : 0,65 Solubilité : soluble à 2 % dans une solution aqueuse d'acide chlorhydrique (0,1 N) et à 1 % dans le propylène glycol.

As for `CCCCOCC(O)CNC(C)C` (stereo not shown) [Exemple 1, isopropylamino-3 butoxy-1 propanol-2], the solubility (water, dans l'eau) worked out at 50 mg/mL (≈ 264 mM). The same measure, in the same setting: with `CCCCOCC(O)CNC(C)(C)C` (stereo not shown) [Exemple 2, tertiobutylamino-3 butoxy-1 propanol-2] the figure was 10 mg/mL (≈ 49.2 mM). With `CC(C)=CCCC(C)CCOCC(O)CNC(C)C` (stereo not shown) [Exemple 3, isopropylamino-3 (diméthyl-3,7 octène-6 yloxy)-1 propanol-2], the solubility runs as follows: (0.1 n aqueous hydrochloric acid, dans une solution aqueuse d'acide chlorhydrique (0,1 N)) 20 mg/mL (≈ 73.7 mM); (propylene glycol, organic solvent or mixture, dans le propylène glycol) 10 mg/mL (≈ 36.8 mM).
